Active and inactive are the calls of the source.
How the values were obtained:
Assay type in all cases: functional, cell-based
[1] = target: T1, Bile acid receptor (Homo sapiens) (UniProt Q96RI1); assay: Antagonist activity at FXR in human HepG2 cells assessed as inhibition of CDCA-induced Cyp7A1 gene expression at 50 uM by real time PCR
T1 sequence (whole entry): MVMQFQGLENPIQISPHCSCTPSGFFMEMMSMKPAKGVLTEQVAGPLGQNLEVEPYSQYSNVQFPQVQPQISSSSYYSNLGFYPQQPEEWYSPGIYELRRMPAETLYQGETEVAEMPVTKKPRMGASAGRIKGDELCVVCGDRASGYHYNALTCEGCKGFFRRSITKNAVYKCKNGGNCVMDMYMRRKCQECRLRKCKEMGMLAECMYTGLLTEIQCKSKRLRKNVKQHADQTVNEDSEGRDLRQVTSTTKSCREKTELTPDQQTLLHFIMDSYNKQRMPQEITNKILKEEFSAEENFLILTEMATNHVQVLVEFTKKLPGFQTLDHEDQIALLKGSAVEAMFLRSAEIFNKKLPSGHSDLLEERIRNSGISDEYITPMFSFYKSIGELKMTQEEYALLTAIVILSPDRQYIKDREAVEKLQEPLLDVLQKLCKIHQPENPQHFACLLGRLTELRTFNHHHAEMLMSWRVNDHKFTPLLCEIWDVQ

HepG2 = assay: Inhibition of CDCA-induced FXR expression in human HepG2 cells after 18 hrs by luminometric analysis
[2] = target: T1, Bile acid receptor (Homo sapiens); assay: Antagonist activity at FXR expressed in human HepG2 cells assessed as stabilization of the NCoR at the OSTalpha promoter at 50 uM after 18 hrs by chromatin immunoprecipitation
[3] = target: T1, Bile acid receptor (Homo sapiens); assay: Antagonist activity at FXR in human HepG2 cells assessed as inhibition of CDCA-induced OSTalpha gene expression at 50 uM by real time PCR
[4] = target: T1, Bile acid receptor (Homo sapiens); assay: Antagonist activity at FXR in human HepG2 cells assessed as inhibition of CDCA-induced BSEP gene expression at 50 uM by real time PCR
[5] = target: T1, Bile acid receptor (Homo sapiens); assay: Antagonist activity at FXR in human HepG2 cells assessed as inhibition of CDCA-induced OSTbata gene expression at 50 uM by real time PCR

C[C@H](CO)[C@@H](C)CC[C@@H](COS(=O)(=O)O)[C@H]1CC[C@H]2[C@@H]3CC[C@@H]4[C@H](O)[C@H](OS(=O)(=O)O)CC[C@]4(C)[C@H]3CC[C@]12C
active: inhibition [1] | inhibition (HepG2) Dose-dependent effect | Activity [2] | inhibition [3] | inhibition [4] | inhibition [5]
